According to patent publication US10278942B2 (PELOTON THERAPEUTICS, INC., priority 2015, dated 2019):
Like-named read-outs stand apart in the source and are kept apart here.

Biological target: T1, HIF-2α HIS TAG-PASB Domain (Homo sapiens, UniProt Q99814)
T1 construct: 100 nM HIF-2α HIS TAG-PASB Domain
Assay: HIF-2α Scintillation Proximity Assay (SPA)
Format: binding
How it was run: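 IC50 values rest on percent inhibition, where the sample signal is scaled between high and low controls. Wells contain about 100 μL: compound dispensed as 2 μL of DMSO solution, 88 μL protein-probe mix and 10 μL of beads.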

[1] = Scintillation Proximity Assay IC50 (nM)
[2] = read-out: Scintillation Proximity Assay IC50

T1 sequence (Q99814 240-350 limits assumed): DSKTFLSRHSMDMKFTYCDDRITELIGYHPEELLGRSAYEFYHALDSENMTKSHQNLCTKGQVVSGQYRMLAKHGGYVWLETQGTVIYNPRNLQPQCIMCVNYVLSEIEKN

| Structure (SMILES) | IC50 [1] [nM] | IC50 [2] [nM] |
| --- | --- | --- |
| CS(=O)(=O)c1ccc(Oc2cc(F)cc(C#N)c2)c2c1C(O)C(F)(F)CC2 (stereo not shown) [Compound 181] | > 1000 | – |
| O=S1(=O)c2ccc(Oc3cc(F)cc(Cl)c3)cc2C(O)C1(F)F (stereo not shown) [Compound 362] | > 1000 | – |
| N#Cc1ccc(F)c2c1CC(F)(F)C2O (stereo not shown) [Compound 519] | – | > 1000 |
| N#Cc1cc(F)cc(Oc2ccc3c(c2C(F)F)C(=O)C(F)(F)S3(=O)=O)c1 [Compound 385] | > 1000 | – |
| O=S(=O)(c1ccc(Oc2cc(F)cc(F)c2)c2c1C(CO)CC2)C(F)F (stereo not shown) [Compound 24] | – | 250 to 1000 |
| O=S(=O)(c1ccc(Oc2c(F)cccc2F)c(Br)c1)C(F)(F)F [Compound 176] | – | > 1000 |
| CS(=O)(=O)c1ccc(Oc2cc(F)cc(Cl)c2)c(C#N)c1 [Compound 139] | – | > 1000 |
| CC(C)(C)OC(=O)N[C@H]1C[C@@H](O)c2c(S(=O)(=O)C(F)(F)F)ccc(Oc3cc(F)cc(C#N)c3)c21 [Compound 278] | – | > 1000 |
| N#Cc1cncc(Oc2ccc3c(c2Br)[C@@H](O)CS3(=O)=O)c1 [Compound 420] | – | > 1000 |
| N#Cc1c(Oc2cc(F)cc(Cl)c2)ccc(S(=O)(=O)C(F)(F)F)c1Cl [Compound 28] | – | > 1000 |
| N#Cc1cncc(Oc2ccc(S(=O)(=O)CF)c3c2[C@@H](F)C(F)(F)[C@H]3O)c1 [Compound 344] | – | < 50 |
| Cc1c(Oc2cc(F)cc(Cl)c2)ccc2c1C(O)C(F)(F)S2(=O)=O (stereo not shown) [Compound 359] | < 50 | – |
| C[C@]1(F)Cc2c(Oc3cc(F)cc(C#N)c3)ccc(S(C)(=O)=O)c2[C@@H]1O [Compound 298] | – | > 1000 |
| CC1(C)CC[C@H](O)[C@H](c2ccc(S(=O)(=O)C(F)(F)F)c3c2CC(F)(F)[C@H]3O)C1 [Compound 548] | – | > 1000 |
| CC(=O)N1CCC(Oc2ccc(S(=O)(=O)C(F)(F)F)c3c2CC(F)(F)C3O)C1 (stereo not shown) [Compound 629] | – | > 1000 |
| O=Cc1cc(S(=O)(=O)C(F)(F)F)ccc1Oc1cc(F)cc(Cl)c1 [Compound 123] | < 50 | – |
| NC1CCc2c(Oc3cc(F)cc(F)c3)ccc(S(=O)(=O)C(F)F)c21 (stereo not shown) [Compound 19] | – | > 1000 |
| CNC(=O)COc1ccc(S(=O)(=O)C(F)(F)F)c2c1CC(F)(F)C2O (stereo not shown) [Compound 638] | – | > 1000 |
| O=S(=O)(c1ccc(O[C@H]2CCCc3cn[nH]c32)c2c1[C@H](O)C(F)(F)C2)C(F)(F)F [Compound 732] | – | > 1000 |
| Cn1nccc1-c1ccc(S(=O)(=O)C(F)(F)F)c2c1CC(F)(F)[C@H]2O [Compound 559] | – | > 1000 |
| CS(=O)(=O)c1ccc(Oc2cncc(F)c2)c2c1[C@H](O)C(F)(F)[C@H]2F [Compound 330] | – | > 1000 |
| COCCNC1c2c(ccc(Oc3cc(F)cc(F)c3)c2Br)S(=O)(=O)C1(F)F (stereo not shown) [Compound 379] | – | < 50 |
| C=CCN=S(=O)(c1ccc(Oc2cc(F)cc(C#N)c2)c2c1[C@H](O)C(F)(F)C2)C(F)(F)F (stereo partly shown) [Compound 307] | – | 250 to 1000 |
| Fc1cc(F)cc(Oc2ncc(Br)c3c2CCC3)c1 [Compound 469, 4-bromo-1-(3,5-difluorophenoxy)-6,7-dihydro-5H-cyclopenta[c]pyridine] | – | > 1000 |
| O=S(=O)(c1ccc(Oc2cc(F)cc(Cl)c2)c(Cl)c1Cn1ccnc1)C(F)F [Compound 45] | – | > 1000 |
| O=S1(=O)CCC(O)c2c1ccc(Oc1cc(F)cc(F)c1)c2C(F)F (stereo not shown) [Compound 402] | > 1000 | – |
| O=S(=O)(c1ccc(-c2cn[nH]c2)c2c1[C@H](O)C(F)(F)C2)C(F)(F)F [Compound 560] | – | > 1000 |

| Structure (SMILES) | IC50 [1] [nM] | IC50 [2] [nM] |
| --- | --- | --- |
| CS(=O)(=O)c1ccc(Oc2ccc(F)c(C#N)c2)c2c1[C@H](O)C(F)(F)[C@@H]2F [Compound 327] | – | < 50 |
| O/N=C1/c2c(C(F)(F)F)ccc(OCCCF)c2CC1(F)F [Compound 702] | – | > 1000 |
| N#Cc1cc(F)cc(Oc2ccc3c(c2C(F)F)C(=N)C(F)S3(=O)=O)c1 (stereo not shown) [Compound 373] | – | > 1000 |
| CS(=O)(=O)c1ccc(Oc2cc(F)cc(C#N)c2)c2c1[C@H](N)C(F)(F)[C@@H]2F [Compound 346] | – | 250 to 1000 |
| O=C1c2c(ccc(Oc3cc(F)cc(Cl)c3)c2Br)S(=O)(=O)C1(F)F [Compound 354] | – | > 1000 |
| O=S(=O)(c1ccc(O[C@@H]2CCCc3cn[nH]c32)c2c1[C@H](O)C(F)(F)C2)C(F)(F)F [Compound 729] | – | > 1000 |
| CC1(O)c2c(S(=O)(=O)C(F)F)ccc(Oc3cc(F)cc(C#N)c3)c2CC1(F)F (stereo not shown) [Compound 13] | – | > 1000 |
| CC1(COc2ccc(S(=O)(=O)C(F)(F)F)c3c2CCC3O)COC1 (stereo not shown) [Compound 621] | – | > 1000 |
| CC(=O)NCCOc1ccc(S(=O)(=O)C(F)(F)F)c2c1CC(F)(F)C2O (stereo not shown) [Compound 636] | – | > 1000 |
| CS(=O)(=O)c1ccc(OCCC2(C#N)CC2)c2c1[C@H](O)C(F)(F)[C@@H]2F [Compound 772] | – | > 1000 |
| CC1(O)c2c(ccc(OC3CC(F)(F)C3)c2C#N)S(=O)(=O)C1(F)F (stereo not shown) [Compound 461] | – | > 1000 |
| CS(=O)(=O)c1ccc(Oc2cc(F)cc(Cl)c2)c(Br)c1 [Compound 138] | > 1000 | – |
| O=S(=O)(c1ccc(Cn2ccnn2)c2c1[C@H](O)C(F)(F)C2)C(F)(F)F [Compound 536] | – | > 1000 |
| O=S(=O)(c1ccc(OC2CCCNC2)c2c1[C@H](O)C(F)(F)C2)C(F)(F)F (stereo partly shown) [Compound 797] | – | > 1000 |
| O=S1(=O)C[C@H](O)c2c1ccc(Oc1cc(F)cc(F)c1)c2Br [Compound 413] | – | > 1000 |
| COc1cncc(Oc2ccc3c(c2Br)[C@@H](O)C(F)(F)S3(=O)=O)c1 [Compound 429] | – | > 1000 |
| CNCCOc1ccc(S(=O)(=O)C(F)(F)F)c2c1CC(F)(F)C2O (stereo not shown) [Compound 650] | – | > 1000 |
| CCCOc1ccc(S(=O)(=O)C(F)(F)F)c2c1CCC2O (stereo not shown) [Compound 583] | – | > 1000 |
| C=CC1(O)c2c(ccc(Oc3cc(F)cc(C#N)c3)c2C#N)S(=O)(=O)C1(F)F (stereo not shown) [Compound 460] | – | > 1000 |
| O=S1(=O)CC(O)c2c1ccc(Oc1cc(F)cc(F)c1)c2Br (stereo not shown) [Compound 418] | – | > 1000 |
| N#Cc1cc(F)cc(Oc2ccc3c(c2Br)C(=O)C(F)(F)S3(=O)=O)c1 [Compound 393] | – | > 1000 |
| CN(Cc1cccs1)c1ccc(S(=O)(=O)C(F)F)c2c1CC(F)(F)[C@H]2O [Compound 530] | – | > 1000 |
| O=S(=O)(c1ccc(Oc2cc(F)cc(Cl)c2)c(Br)c1)C(F)(F)F [Compound 116] | 50 to 249 | – |
| O=S(=O)(c1ccc(-c2ccc3cn[nH]c3c2)c2c1[C@H](O)C(F)(F)C2)C(F)(F)F [Compound 568] | – | > 1000 |
| N#Cc1cc(F)cc(Oc2ccc3c(c2C(F)F)[C@H](N)C(F)(F)S3(=O)=O)c1 [Compound 384] | – | > 1000 |
| CC1(C)C=C(c2ccc(S(=O)(=O)C(F)(F)F)c3c2CC(F)(F)[C@H]3O)C(=O)CC1 [Compound 541] | – | > 1000 |
| CS(=O)(=O)N1CC(Oc2ccc(S(=O)(=O)C(F)(F)F)c3c2CC(F)(F)[C@H]3O)C1 [Compound 793] | – | > 1000 |

| Structure (SMILES) | IC50 [1] [nM] | IC50 [2] [nM] |
| --- | --- | --- |
| COCCOc1ccc(S(=O)(=O)C(F)(F)F)c2c1CCC2O (stereo not shown) [Compound 599] | – | > 1000 |
| N#Cc1ccc(OCC(F)F)c2c1[C@H](O)C(F)(F)C2 [Compound 688] | – | > 1000 |
| CS(=O)(=O)c1ccc(OC[C@H]2CC2(F)F)c2c1[C@H](O)C(F)(F)[C@@H]2F [Compound 769] | – | 50 to 249 |
| N#Cc1cc(F)cc(Oc2ccc3c(c2C#N)C(O)(C(F)(F)F)CS3(=O)=O)c1 (stereo not shown) [Compound 450] | – | > 1000 |
| OC1CCc2c(OCC(F)F)ccc(C(F)(F)F)c21 (stereo not shown) [Compound 662] | – | > 1000 |
| CNCc1c(S(=O)(=O)C(F)(F)F)ccc(Oc2cc(F)cc(Cl)c2)c1Cl [Compound 113] | – | > 1000 |
| N#Cc1cc(F)cc(Oc2ccc(S(=N)(=O)C(F)(F)F)cc2C#N)c1 (stereo not shown) [Compound 73] | – | > 1000 |
| O=S(=O)(c1ccc(Oc2cc(F)cc(Cl)c2)c(CCO)c1)C(F)(F)F [Compound 127] | – | > 1000 |
| CS(=N)(=O)c1ccc(Oc2cc(F)cc(Cl)c2)c(C#N)c1Cl (stereo not shown) [Compound 180] | – | > 1000 |
| NC1CS(=O)(=O)c2ccc(Oc3cc(F)cc(F)c3)c(C(F)F)c21 (stereo not shown) [Compound 367] | – | > 1000 |
| CS(=O)(=O)c1ccc(C(F)(F)CO)c2c1C(O)C(F)(F)C2 (stereo not shown) [Compound 555] | – | > 1000 |
| CC(Oc1ccc(S(=O)(=O)C(F)(F)F)c2c1CC(F)(F)C2O)C(N)=O (stereo not shown) [Compound 649] | – | > 1000 |
| O[C@H]1c2c(C(F)(F)F)ccc(OC3CC(F)(F)C3)c2CC1(F)F [Compound 587] | – | < 50 |
| N#CN=S(=O)(c1ccc(Oc2cc(F)cc(C#N)c2)c2c1[C@H](O)[C@H](F)C2)C(F)F (stereo partly shown) [Compound 297] | – | > 1000 |
| CN=S(=O)(c1ccc(Oc2cc(F)cc(Cl)c2)c(Br)c1)C(F)F (stereo not shown) [Compound 70] | – | 250 to 1000 |
| CS(=O)(=O)c1ccc(Oc2cncc(Cl)c2)c2c1[C@H](O)C(F)(F)[C@H]2F [Compound 332] | – | > 1000 |
| O=C(O)Cc1ccc(S(=O)(=O)C(F)(F)F)c2c1CC[C@H]2O [Compound 524, (R)-2-(1-hydroxy-7-((trifluoromethyl)sulfonyl)-2,3-dihydro-1H-inden-4-yl)acetic acid] | – | > 1000 |
| CNS(=O)(=O)c1ccc(Oc2cc(F)cc(F)c2)c2c1C(O)CC2 (stereo not shown) [Compound 211] | – | > 1000 |
| O=S(=O)(c1ccc(NCc2cccs2)c2c1[C@H](O)C(F)(F)C2)C(F)F [Compound 528] | – | > 1000 |
| O=S(=O)(c1ccc(CC2CCCCC2)c2c1C(O)CC2)C(F)(F)F (stereo not shown) [Compound 508] | – | > 1000 |
| C=CCN=S(=O)(c1ccc(Oc2cc(F)cc(C#N)c2)c2c1[C@H](O)C(F)(F)C2)C(F)(F)F (stereo partly shown) [Compound 308] | – | 50 to 249 |
| CS(=O)(=NC#N)c1ccc(Oc2cncc(C#N)c2)c2c1[C@@H](O)C(F)(F)[C@@H]2F (stereo partly shown) [Compound 320] | – | > 1000 |
| O=S(=O)(c1ccc(Oc2ccc(Cl)c(Cl)c2)c(Br)c1)C(F)(F)F [Compound 169] | – | > 1000 |
| OC1c2c(-c3cn[nH]c3)ccc(OCC(F)F)c2CC1(F)F (stereo not shown) [Compound 684] | – | > 1000 |
| CC1(C)C(O)c2c(ccc(Oc3cc(F)cc(Cl)c3)c2C#N)S1(=O)=O (stereo not shown) [Compound 408] | – | > 1000 |
